The target in one test is T1, K-Ras G12D (Homo sapiens, UniProt P01116, G12D).
T1 construct: made in house; host or cells: E. coli BL21 (DE3)
Kind of test: HTRF resonance energy transfer assay, K-Ras G12D / SOS1 interaction. It is filed as biochemical. To be noted: HTRF assay of Example 5; read-out: IC50 against K-Ras G12D. In a few lines: (§1)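 GST-tagged K-Ras (WT or mutant) bound to anti-GST-Eu donor was mixed with His-hSOS1 bound to anti-6His-XL665 acceptor in ~5 mM HEPES pH 7.4, 150 mM NaCl, 1 mM DTT, 0.05% BSA, 0.0025% Igepal. HTRF (ex 337, em 620/665 nm) was read after ~10 min or longer. IC50 came from the 665/620 ratio over duplicates from 10 μM to 0.01 μM.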

The target of the next test is T2, K-Ras G12S (Homo sapiens, UniProt P01116, G12S).
T2 construct: made in house; host or cells: E. coli BL21 (DE3)
Kind of test: HTRF resonance energy transfer assay, K-Ras G12S / SOS1 interaction. It is filed as biochemical. To be noted: HTRF assay of Example 5; read-out: IC50 against K-Ras G12S. In a few lines: as §1
A general note: Time-resolved FRET reads energy transfer from a long-lived donor to a nearby acceptor.

A further test concerns the target T3, K-Ras G12V (Homo sapiens, UniProt P01116, G12V).
T3 construct: made in house; host or cells: E. coli BL21 (DE3)
Kind of test: HTRF resonance energy transfer assay, K-Ras G12V / SOS1 interaction. To be noted: HTRF assay of Example 5; read-out: IC50 against K-Ras G12V. Format: biochemical. In short, it runs like this: as §1

Another test addresses T4, K-Ras WT (Homo sapiens, UniProt P01116).
T4 construct: made in house; host or cells: E. coli BL21 (DE3)
Kind of test: HTRF resonance energy transfer assay, K-Ras WT / SOS1 interaction. Format: biochemical. The conditions noted are these: HTRF assay of Example 5; read-out: IC50 against K-Ras WT. In a few lines: as §1

Another test has as its system GP2D cells. Briefly: Ras cellular assay, growth of cells with K-Ras G12D mutation (CellTiter-Glo). It is filed as cell-based. To be noted: cell growth, Example 9, G12D mutation, read-out: IC50 against GP2D cells. (In ATP-based viability assays light output follows the ATP content of the culture.)
In another test the test system is A549 cells. Kind of test: Ras cellular assay, growth of cells with K-Ras G12S mutation (CellTiter-Glo). Format: cell-based. The conditions noted are these: Homo sapiens, cell growth, Example 9, G12S mutation, read-out: IC50 against A549 cells. In a few lines: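 A549 cells (K-Ras G12S) in RPMI-1640 with 10% heat-inactivated FBS, seeded e.g. 800 per well in standard or ultra-low-attachment 384-well plates, treated next day with a dilution series (e.g. 10-point, 3-fold). Viability by CellTiter-Glo luminescence about 6 days later; IC50 from four-parameter fit.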

The test system of another test is SW620 cells. Briefly: Ras cellular assay, growth of cells with K-Ras G12V mutation (CellTiter-Glo). It is filed as cell-based. The conditions noted are these: Homo sapiens, SW-620; cell growth, Example 9, G12V mutation; read-out: IC50 against SW620 cells. In short, it runs like this:
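SW620 (K-Ras G12V) cells, e.g. 800/well in RPMI-1640 with 10% heat-inactivated FBS on standard or ultra-low attachment plates, were dosed the day after plating with e.g. a 10-point 3-fold series. Viability by CellTiter-Glo luminescence about 6 days later; IC50 from four-parameter fit.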

Usually IC50 stands for the midpoint of a concentration-inhibition curve.

T4 sequence (P01116 1-188 isoform P01116-2): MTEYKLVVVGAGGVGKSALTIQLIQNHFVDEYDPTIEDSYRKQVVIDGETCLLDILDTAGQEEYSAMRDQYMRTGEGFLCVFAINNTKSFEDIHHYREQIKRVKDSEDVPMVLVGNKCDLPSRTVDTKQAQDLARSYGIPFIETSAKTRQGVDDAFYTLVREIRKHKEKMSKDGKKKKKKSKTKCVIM
T3 sequence (P01116 1-188 isoform P01116-2 G12V): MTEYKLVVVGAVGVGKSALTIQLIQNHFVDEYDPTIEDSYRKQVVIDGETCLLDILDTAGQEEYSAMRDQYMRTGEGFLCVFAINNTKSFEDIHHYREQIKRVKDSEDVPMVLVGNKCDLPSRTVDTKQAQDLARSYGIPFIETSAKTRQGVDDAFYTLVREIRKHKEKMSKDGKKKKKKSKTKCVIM
T2 sequence (P01116 1-188 isoform P01116-2 G12S): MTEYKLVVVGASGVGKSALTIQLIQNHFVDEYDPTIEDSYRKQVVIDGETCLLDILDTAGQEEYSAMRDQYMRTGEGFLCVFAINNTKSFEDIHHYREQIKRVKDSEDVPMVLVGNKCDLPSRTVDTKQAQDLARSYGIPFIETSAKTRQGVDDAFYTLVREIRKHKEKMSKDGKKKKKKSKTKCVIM
T1 sequence (P01116 1-188 isoform P01116-2 G12D): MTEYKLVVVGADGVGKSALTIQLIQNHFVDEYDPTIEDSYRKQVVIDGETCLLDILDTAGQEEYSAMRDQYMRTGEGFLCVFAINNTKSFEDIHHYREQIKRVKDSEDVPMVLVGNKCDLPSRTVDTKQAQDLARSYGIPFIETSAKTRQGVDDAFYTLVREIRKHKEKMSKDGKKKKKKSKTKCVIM

`C[C@@H](O)[C@H]1COc2c(Cl)c(-c3ccc(F)c4sc(N)c(C#N)c34)c(F)c3nc(OC[C@@]45CCCN4C[C@H](F)C5)nc(c23)N1CCC(F)F` (single isomer, unassigned) [Compound 820]: the IC50 is under 100 nM at K-Ras G12D; under 100 nM on K-Ras G12S; under 100 nM at K-Ras G12V; under 100 nM at K-Ras WT; under 500 nM in the test on GP2D cells; under 5000 nM in the test on A549 cells. Further, the IC50 in the test on SW620 cells was under 5000 nM.
In the case of `C=C[C@H]1COc2c(Cl)c(-c3ccc(F)c4sc(N)c(C#N)c34)c(F)c3nc(OC[C@@]45CCCN4C[C@H](F)C5)nc(c23)N1CC(F)F` (single isomer, unassigned) [Compound 890], the IC50 on K-Ras G12D was under 100 nM; on K-Ras G12S, under 100 nM; at K-Ras G12V, under 100 nM; at K-Ras WT it was under 100 nM; with GP2D cells it was under 500 nM; in the test on A549 cells, under 5000 nM. For the same molecule, in the test with SW620 cells, the IC50 is under 5000 nM.
Regarding `CC(O)C1COc2c(Cl)c(-c3ccc(F)c4sc(N)c(C#N)c34)c(F)c3nc(OC[C@@]45CCCN4C[C@H](F)C5)nc(c23)N1CC(F)F` (single isomer, unassigned) [Compound 899], the IC50 is under 100 nM on K-Ras G12D; under 100 nM at K-Ras G12S; under 100 nM at K-Ras G12V; under 100 nM on K-Ras WT; under 500 nM in the test with GP2D cells; under 5000 nM with A549 cells. For the same molecule, the IC50 in the test with SW620 cells is under 5000 nM.
With `N#Cc1c(N)sc2c(F)ccc(-c3c(Cl)c4c5c(nc(OC[C@@]67CCCN6C[C@H](F)C7)nc5c3F)N(CC(F)F)C(CCO)CO4)c12` (single isomer, unassigned) [Compound 1049], the IC50 on K-Ras G12D is under 100 nM; at K-Ras G12S it was under 100 nM; on K-Ras G12V, under 100 nM; at K-Ras WT, under 100 nM; in the test with GP2D cells, under 500 nM; with A549 cells, under 5000 nM. In the test on SW620 cells, the IC50 was under 5000 nM.
As to `N#Cc1c(N)sc2c(F)ccc(-c3c(Cl)c4c5c(nc(OC[C@@]67CCCN6C[C@H](F)C7)nc5c3F)N(CC(F)F)CCC(CO)O4)c12` (single isomer, unassigned) [Compound 1207], the IC50 is under 100 nM on K-Ras G12D; under 100 nM at K-Ras G12S; under 100 nM on K-Ras G12V; under 100 nM on K-Ras WT; under 500 nM in the test with GP2D cells; under 5000 nM with A549 cells. Also, the IC50 with SW620 cells is under 5000 nM.
With `N#Cc1c(N)sc2c(F)ccc(-c3c(Cl)c4c5c(nc(OC[C@@]67CCCN6C[C@H](F)C7)nc5c3F)N(C3CC(NC(=O)C(F)F)C3)CCO4)c12` (stereo partly drawn) [Compound 612, N-(3-(9-(2-amino-3-cyano-7-fluorobenzo[b]thiophen-4-yl)-8-chloro-10-fluoro-2-(((2R,7aS)-2-fluorotetrahydro-1H-pyrrolizin-7a(5H)-yl)methoxy)-5,6-dihydro-4H-[1,4]oxazepino[5,6,7-de]quinazolin-4-yl)cyclobutyl)-2,2-difluoroacetamide], the IC50 on K-Ras G12D was under 100 nM; on K-Ras G12S, under 100 nM; on K-Ras G12V, under 100 nM; on K-Ras WT, under 100 nM; with GP2D cells, under 500 nM; in the test on A549 cells it was under 5000 nM. In addition, in the test on SW620 cells, the IC50 was under 5000 nM.
For the molecule `N#Cc1c(N)sc2c(F)ccc(-c3c(Cl)c4c5c(nc(OC[C@@]67CCCN6C[C@H](F)C7)nc5c3F)N(CC(F)F)CC(C(F)(F)F)O4)c12` (stereo partly drawn) [Compound 1008, 2-amino-4-(8-chloro-4-(2,2-difluoroethyl)-10-fluoro-2-(((2R,7aS)-2-fluorotetrahydro-1H-pyrrolizin-7a(5H)-yl)methoxy)-6-(trifluoromethyl)-5,6-dihydro-4H-[1,4]oxazepino[5,6,7-de]quinazolin-9-yl)-7-fluorobenzo[b]thiophene-3-carbonitrile], the IC50 on K-Ras G12D is under 100 nM; at K-Ras G12V, under 100 nM; at K-Ras WT, under 100 nM; in the test with GP2D cells, under 500 nM; in the test on A549 cells, under 5000 nM; with SW620 cells, under 5000 nM.

For the origin of these results see patent publication US12209102B2, “Heterocyclic compounds and uses thereof” (Kumquat Biosciences Inc., priority 2022, dated 2025).
